Measured values as given in ChEMBL document CHEMBL3217410, “New potent, short-linker BODIPY-630/650TM labelled fluorescent adenosine receptor agonists” (Medchemcomm, 2012).
Activity calls are given as the source filed them. The calls are words filed in the database; no cut-off is given here.

Tests used:
[1] = target: T1, Adenosine receptor A1 (Homo sapiens) (UniProt P30542); test: (§1) Agonist activity at human adenosine A1 receptor expressed in CHO cells assessed as Gi-mediated inhibition of forskolin-stimulated SPAP secretion incubated for 10 mins prior to forskolin challenge measured after 5 hrs by spectrophotometry; type: functional, cell-based
T1 sequence (whole entry): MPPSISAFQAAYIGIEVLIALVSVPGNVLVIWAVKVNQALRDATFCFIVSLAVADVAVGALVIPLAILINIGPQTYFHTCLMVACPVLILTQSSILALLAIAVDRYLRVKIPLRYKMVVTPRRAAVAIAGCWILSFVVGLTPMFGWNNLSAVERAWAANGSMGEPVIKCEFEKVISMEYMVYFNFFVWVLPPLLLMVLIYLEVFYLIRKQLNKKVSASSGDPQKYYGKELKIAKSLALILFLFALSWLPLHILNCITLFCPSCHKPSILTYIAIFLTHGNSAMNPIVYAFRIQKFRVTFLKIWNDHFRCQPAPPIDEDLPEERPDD

[2] = target: T1, Adenosine receptor A1 (Homo sapiens); test: (§2) Agonist activity at human adenosine A1 receptor expressed in CHO cells assessed as Gs-mediated activation of forskolin-stimulated SPAP secretion incubated for 10 mins prior to forskolin challenge measured after 5 hrs by spectrophotometry; type: functional, cell-based
[3] = target: T1, Adenosine receptor A1 (Homo sapiens); test: (§3) Displacement of [3H]DPCPX from human adenosine A1 receptor expressed in CHO cells after 2 hrs by scintillation counting analysis relative to control; type: cell-based
[4] = target: T1, Adenosine receptor A1 (Homo sapiens); test: Agonist activity at human adenosine A1 receptor expressed in CHO cells assessed as Gi-mediated inhibition of forskolin-stimulated SPAP secretion incubated for 10 mins prior to forskolin challenge measured after 5 hrs in presence of 1 uM adenosine A1 receptor antagonist XAC by spectrophotometry; type: functional, cell-based
[5] = target: T1, Adenosine receptor A1 (Homo sapiens); test: Binding affinity to human adenosine A1 receptor expressed in CHO cells at 100 nM after 30 mins by confocal microscopy in presence of DPCPX; type: cell-based
[6] = target: T2, Adenosine receptor A1 (Homo sapiens, UniProt P30542); test: as §1; type: functional, cell-based
T2 sequence (P30542 whole entry): T1 sequence (whole entry)

[7] = target: T1, Adenosine receptor A1 (Homo sapiens); test: Binding affinity to human adenosine A1 receptor expressed in CHO cells at 100 nM after 30 mins by confocal microscopy; type: cell-based
[8] = target: T1, Adenosine receptor A1 (Homo sapiens); test: Binding affinity to human adenosine A1 receptor expressed in CHO cells assessed as internalization at 100 nM after 30 mins by confocal microscopy; type: cell-based
[9] = target: T1, Adenosine receptor A1 (Homo sapiens); test: Agonist activity at human adenosine A1 receptor expressed in CHO cells assessed as Gs-mediated activation of forskolin-stimulated SPAP secretion up to 10^-5 M incubated for 10 mins prior to forskolin challenge measured after 5 hrs by spectrophotometry; type: functional, cell-based
[10] = target: T2, Adenosine receptor A1; test: as §2; type: functional, cell-based
[11] = target: T2, Adenosine receptor A1; test: as §3; type: cell-based

CCNC(=O)[C@H]1O[C@@H](n2cnc3c(N)ncnc32)[C@H](O)[C@@H]1O
inhibition [1]: 105% | Activity [2]: 177% | Activity [3]: 73% | Activity [4]: inactive

CCNC(=O)[C@H]1O[C@@H](n2cnc3c(NCCOCCOCCNC(=O)COc4ccc(/C=C/C5=[N+]6C(=Cc7ccc(-c8cccs8)n7[B-]6(F)F)C=C5)cc4)ncnc32)[C@H](O)[C@@H]1O
Activity [5]: inactive | IC50 [6]: 74.1 nM | inhibition [1]: 102% | Activity [2]: inactive | Activity [4]: inactive | Activity [7]: Active

CCNC(=O)[C@H]1O[C@@H](n2cnc3c(NCCCCCCCCCCCNC(=O)COc4ccc(/C=C/C5=[N+]6C(=Cc7ccc(-c8cccs8)n7[B-]6(F)F)C=C5)cc4)ncnc32)[C@H](O)[C@@H]1O
Activity [8]: Active | Activity [5]: inactive | IC50 [6]: 129 nM | Activity [2]: inactive | Activity [4]: inactive | Activity [9]: inactive

CCNC(=O)[C@H]1O[C@@H](n2cnc3c(NCCCNC(=O)COc4ccc(/C=C/C5=[N+]6C(=Cc7ccc(-c8cccs8)n7[B-]6(F)F)C=C5)cc4)ncnc32)[C@H](O)[C@@H]1O
Activity [5]: inactive | IC50 [6]: 0.49 nM | inhibition [1]: 97% | EC50 [10]: 263 nM | Activity [2]: 188% | Ki [11]: 417 nM | Activity [3]: 59% | Activity [4]: inactive | Activity [7]: Active

CCNC(=O)[C@H]1O[C@@H](n2cnc3c(NCCCCCCCCNC(=O)COc4ccc(/C=C/C5=[N+]6C(=Cc7ccc(-c8cccs8)n7[B-]6(F)F)C=C5)cc4)ncnc32)[C@H](O)[C@@H]1O
Activity [5]: inactive | IC50 [6]: 26.9 nM | Activity [2]: inactive | Activity [4]: inactive | Activity [9]: inactive

CCNC(=O)[C@H]1O[C@@H](n2cnc3c(NCCNC(=O)COc4ccc(/C=C/C5=[N+]6C(=Cc7ccc(-c8cccs8)n7[B-]6(F)F)C=C5)cc4)ncnc32)[C@H](O)[C@@H]1O
Activity [5]: inactive | IC50 [6]: 2.04 nM | inhibition [1]: 100% | EC50 [10]: 234 nM | Activity [2]: 64% | Ki [11]: 363 nM | Activity [3]: 50% | Activity [4]: inactive | Activity [7]: Active

CCNC(=O)[C@H]1O[C@@H](n2cnc3c(NCCCCNC(=O)COc4ccc(/C=C/C5=[N+]6C(=Cc7ccc(-c8cccs8)n7[B-]6(F)F)C=C5)cc4)ncnc32)[C@H](O)[C@@H]1O
Activity [5]: inactive | IC50 [6]: 5.25 nM | inhibition [1]: 101% | EC50 [10]: 2340 nM | Activity [2]: 155% | Ki [11]: 263 nM | Activity [3]: 43% | Activity [4]: inactive

CCNC(=O)[C@H]1O[C@@H](n2cnc3c(NCCOCCOCCOCCNC(=O)COc4ccc(/C=C/C5=[N+]6C(=Cc7ccc(-c8cccs8)n7[B-]6(F)F)C=C5)cc4)ncnc32)[C@H](O)[C@@H]1O
IC50 [6]: 191 nM | inhibition [1]: 99% | Activity [2]: inactive | Activity [4]: inactive
